The source of these data is the NIST ThermoML archive (doi:10.1016/j.fluid.2015.12.048).

The conditions of data set [1]: Crystal.
The nature of data set [2]: Molar enthalpy of transition or fusion. The settings on record: Crystal; DSC.

± gives the expanded uncertainty stated by the source.

Take `CCCCCCCCCCO` [decan-1-ol]: the Normal melting temperature in data set [1] (DTA) and in data set [1] (visual observation) was 7.0 ± 0.4 °C throughout.
With `CC(C)[C@@H]1CC[C@@H](C)C[C@H]1O` [L-menthol], the “Molar enthalpy of transition or fusion” value in data set [2] was 3.07 ± 0.086 kcal/mol. The Normal melting temperature is 43.6 ± 0.4 °C in data set [1] (DTA) and 42.8 ± 0.4 °C in data set [1] (visual observation).
Regarding `OCc1ccccc1` [benzenemethanol], the Normal melting temperature in data set [1] (DTA) and in data set [1] (visual observation) was -15.0 ± 0.4 °C each time.
As for `Cc1ccc(C(C)C)c(O)c1` [3-methyl-6-isopropylphenol], in data set [2], the “Molar enthalpy of transition or fusion” value stood at 4.19 ± 0.103 kcal/mol. Also, the values for the Normal melting temperature in data set [1] (DTA) and in data set [1] (visual observation) were 49.7 ± 0.4 °C and 50.0 ± 0.4 °C, respectively.
